Results: paper PMC6963673, “Phenylboronic Acids Probing Molecular Recognition against Class A and Class C β-lactamases” (Antibiotics, 2019)
Where two headings read alike, the source gives them in different places.

Tests used:
[1] = biological target: T1, KPC-2 (Klebsiella pneumoniae, UniProt Q9F663); assay: In vitro enzyme inhibition assay against KPC-2 (nitrocefin reporter substrate); type: biochemical; settings: for drop in potency against KPC-2: meta substituent
T1 construct: made in house
Excerpt: (§1) Expression and purification of recombinant KPC-2 and GES-5 have been performed as already reported. For recombinant AmpC from Pseudomonas aeruginosa, the optimized full-length synthetic gene was purchased (GeneArt service under Life Technologie) and subcloned into pRham vector to have it in the full-length version. Protein was expressed according to standard protocol: P. aeruginosa AmpC-β-lactamase was obtained from a culture of E. coli BL21(DE3), carrying the plasmid vector pRham-AmpC. 1L of LB-medium with kanamycin 50 μg/mL, at 37 °C, 150 RPM for 24 hrs. Expression was induced by 0.2% w/v Rhamnose. After 5–6 hours the cell broth was centrifuged at 4500 RPM, 4 °C, for 20 min. The sample was loaded on a column packed with 25 mL of Affigel-10 (Biorad) functionalized with 3 MAPB (3-methylaminophenylboronic acid). The column was previously equilibrated with the loading buffer. The protein was eluted (flow rate, 1 mL/min) with 5 column-volumes of elution-buffer (0.5 M boric acid, 0.5 M NaCl, pH 7.0). β-lactamase activity was checked in each elution fraction using 200 μM CENTA [35]. Active fractions were pooled, concentrated by ultrafiltration using a Millipore Ultra-15 (Ultracel-10K; Millipore) and checked by SDS-Page. The protein pool final concentration (1 mg/mL) was assessed using Bradford and UV-Vis assays. Purified AmpC β-lactamase was stored at −80 °C [36].
(§2) The half-maximal inhibitory concentration (IC50) of phenylboronic acid derivatives was determined as follows. Reactions were monitored using a Jasco V-730 spectrophotometer at […] wavelength. Boronic acids were dissolved in dimethyl sulfoxide (DMSO) to a concentration of 10 mM and stored at −20°C. Each compound was tested at concentrations ranging from 1 µM to 200 µM for inhibitory activity vs full-length KPC-2 enzyme, GES-5 and AmpC in 50 mM of PB + 50 mM KCl at pH 7.4 at 25°C with 0.01% v/v Triton X-100, to avoid compound aggregation and promiscuous inhibition in presence of nitrocefin as reported substrate. For tests against KPC-2, reporter substrate nitrocefin was used at 40 μM, (Km 36 μM) while for tests against GES-5 and AmpC reporter substrate nitrocefin was used at 200 μM (Km 208 μM and Km 200 respectively). All the experiments were performed in triplicate. Experimental error never exceeded 5%. The reaction was typically initiated by adding the enzyme to the reaction buffer last. The IC50 values were determined by measuring the rate of hydrolysis of a reporter substrate in the presence of five different inhibitor concentrations at λ 482 nm. The binding affinity ki was estimated, for each compound in the library, from the determined IC50 by Cheng–Prusoff equation as per competitive inhibition (Table 1).

[2] = biological target: T2, GES-5 (Klebsiella pneumoniae, UniProt Q09HD0); assay: In vitro enzyme inhibition assay against GES-5 (nitrocefin reporter substrate); type: biochemical
T2 construct: made in house
T2 sequence (Q09HD0 19-287): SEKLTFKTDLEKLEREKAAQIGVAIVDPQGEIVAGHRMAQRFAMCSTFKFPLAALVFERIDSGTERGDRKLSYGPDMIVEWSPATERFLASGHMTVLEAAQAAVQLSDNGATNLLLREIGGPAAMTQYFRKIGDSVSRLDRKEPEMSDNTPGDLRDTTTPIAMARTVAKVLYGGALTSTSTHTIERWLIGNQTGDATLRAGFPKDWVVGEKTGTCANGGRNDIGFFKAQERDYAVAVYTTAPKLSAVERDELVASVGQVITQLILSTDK
Excerpt: as §1, §2

[3] = biological target: T3, AmpC (Pseudomonas aeruginosa, UniProt P24735); assay: In vitro enzyme inhibition assay against AmpC (nitrocefin reporter substrate); type: biochemical; settings: for drop in potency against AmpC: ortho substitution
T3 construct: subcloned into pRham vector to have it in the full-length version; made in house; host or cells: E. coli BL21(DE3), plasmid pRham-AmpC
T3 sequence (P24735 27-397): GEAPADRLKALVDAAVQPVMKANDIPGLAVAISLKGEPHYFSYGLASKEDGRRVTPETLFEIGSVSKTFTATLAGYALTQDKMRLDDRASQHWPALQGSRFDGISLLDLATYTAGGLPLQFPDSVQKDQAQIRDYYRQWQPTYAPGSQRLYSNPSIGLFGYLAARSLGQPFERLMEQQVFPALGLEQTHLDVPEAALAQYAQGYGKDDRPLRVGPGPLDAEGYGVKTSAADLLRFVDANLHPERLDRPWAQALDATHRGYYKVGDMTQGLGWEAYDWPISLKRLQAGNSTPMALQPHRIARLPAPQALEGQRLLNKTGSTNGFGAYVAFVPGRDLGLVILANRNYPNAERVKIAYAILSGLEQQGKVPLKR
Excerpt: as §1, §2

[4] = test system: clinical isolates of Klebsiella pneumoniae expressing KPC-2; assay: Checkerboard microdilution assay and FICI, meropenem plus inhibitor; type: cell-based; settings: for FICI Antibiotic + inhibitor: MEM + inhibitor, synergy FICI ≤0.5, indifference >0.5 and ≤4, antagonism >4; for nature of interaction with antibiotic: Klebsiella pneumoniae strains, in combination with MEM
Experimental: (§3) To assess the nature of the in vitro interactions between the compounds and antibiotics against selected clinical strains, the data obtained from the checkerboard assay were used to calculate the fractional inhibitory concentration index (FICI). Briefly, exponential cultures of the bacterial strains in Mueller Hinton broth were inoculated in the wells of microtiter plates containing different concentrations of the cited antibiotics, with and without phenylboronic acids, and incubated at 37 °C for 18 hours. The growth in each well was quantified spectrophotometrically at 595 nm by a microplate reader TECAN Infinite (Tecan Trading AG, Switzerland). The minimal inhibitory concentration (MIC) for each drug and combination of drugs was defined as the concentration of drug that reduced growth by 80% compared to that of organisms grown in the absence of drug. The fractional inhibitory concentration index (FICI) is the mathematical expression of the effect of the combination of antibacterial agents expressed in Equation (1):(1) ΣFIC=FICA+FICB=MICAB/MICA+MICBA/MICB in which MICA and MICB are the MICs of drugs A and B acting alone, and MICAB and MICBA are the MICs of drugs A and B in combination. Synergy is defined when the FICI is ≤0.5, antagonism when the FICI is > 4, and indifference when the FICI is >0.5 and ≤4.

[5] = test system: Pseudomonas aeruginosa overexpressing AmpC; assay: Checkerboard microdilution assay and FICI, ceftazidime plus inhibitor; type: cell-based; settings: for FICI Antibiotic + inhibitor: CAZ + inhibitor, synergy FICI ≤0.5, indifference >0.5 and ≤4, antagonism >4; for nature of interaction with antibiotic: Pseudomonas aeruginosa, in combination with CAZ; for MIC Antibiotic: antibiotic alone
Experimental: To investigate the ability of our phenylboronic acid derivatives 2-5 to reach the periplasmic space, where SBLs are secreted and concentrated in Gram negative bacteria, and synergically protect β-lactam antibiotics hydrolysis by BLs, drug interactions model via the fractional inhibitory concentration index (FICI) was determined against clinical strains overexpressing BLs targets of our studies (Table 2).
as §3

[6] = biological target: T3, AmpC; settings: read-out: AmpC Ki; lead phenylboronic acid; cited from earlier work

T1 sequence (Q9F663 25-293 limits assumed): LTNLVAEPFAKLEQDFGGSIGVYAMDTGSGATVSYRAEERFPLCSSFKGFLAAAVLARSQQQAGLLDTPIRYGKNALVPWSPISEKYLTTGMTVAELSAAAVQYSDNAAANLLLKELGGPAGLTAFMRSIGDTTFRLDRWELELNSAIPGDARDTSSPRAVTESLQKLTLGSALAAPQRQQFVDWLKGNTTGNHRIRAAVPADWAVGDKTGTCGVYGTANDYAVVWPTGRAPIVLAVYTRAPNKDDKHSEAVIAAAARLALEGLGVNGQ

Structure (SMILES): O=C(O)C=Cc1cccc(B(O)O)c1 [Compound 3, [3-(2-carboxyvinyl)phenyl] boronic acid]
- Ki [1]: 31.2 µM
- drop in potency against KPC-2 [1]: up to 47 fold
- Ki [2]: 24.6 µM
- Ki [3]: 1.45 µM
- FICI Antibiotic + inhibitor ([4]; Klebsiella 53A8): 2
- FICI Antibiotic + inhibitor ([4]; Klebsiella 53A9): 1.5
- FICI Antibiotic + inhibitor ([4]; Klebsiella 99D8): 2
- FICI Antibiotic + inhibitor ([5]; P aeruginosa 12): 0.5
- FICI Antibiotic + inhibitor ([5]; P aeruginosa 148): 0.375
- nature of interaction with antibiotic [5]: synergism can be defined

Structure (SMILES): OB(O)c1ccccc1 [Compound 1, phenylboronic acid]
- Ki [6]: 4.85 µM

Structure (SMILES): O=C(O)CCc1ccccc1B(O)O [Compound 4]
- Ki [1]: 1.13 µM
- Ki [2]: 1.83 µM
- Ki [3]: 76.1 µM
- drop in potency against AmpC [3]: up to 50 fold
- FICI Antibiotic + inhibitor ([4]; Klebsiella 53A8): 0.1875
- FICI Antibiotic + inhibitor ([4]; Klebsiella 53A9): 0.2500
- FICI Antibiotic + inhibitor ([4]; Klebsiella 99D8): 0.1250
- nature of interaction with antibiotic [4]: clear synergistic activity
- FICI Antibiotic + inhibitor ([5]; P aeruginosa 12): 2
- FICI Antibiotic + inhibitor ([5]; P aeruginosa 148): 1.5

Structure (SMILES): O=C(O)CCc1cccc(B(O)O)c1 [Compound 5]
- Ki [1]: 53 µM
- drop in potency against KPC-2 [1]: up to 47 fold
- Ki [2]: 69.4 µM
- Ki [3]: 5.3 µM
- FICI Antibiotic + inhibitor ([4]; Klebsiella 53A8): 2
- FICI Antibiotic + inhibitor ([4]; Klebsiella 53A9): 1.5
- FICI Antibiotic + inhibitor ([4]; Klebsiella 99D8): 2
- FICI Antibiotic + inhibitor ([5]; P aeruginosa 12): 0.3750
- FICI Antibiotic + inhibitor ([5]; P aeruginosa 148): 0.0936
- nature of interaction with antibiotic [5]: synergism can be defined

Structure (SMILES): O=C(O)C=Cc1ccccc1B(O)O [Compound 2, [2-(2-carboxyvinyl)-phenyl]boronic acid]
- Ki [1]: 2.43 µM
- Ki [2]: 0.11 µM
- higher activity against GES-5 with respect to KPC-2 ([2]; ratio of Ki KPC-2 to Ki GES-5): 23 fold
- Ki [3]: 41.7 µM
- drop in potency against AmpC [3]: up to 50 fold
- FICI Antibiotic + inhibitor ([4]; Klebsiella 53A8): 0.0117
- FICI Antibiotic + inhibitor ([4]; Klebsiella 53A9): 0.0175
- FICI Antibiotic + inhibitor ([4]; Klebsiella 99D8): 0.0156
- nature of interaction with antibiotic [4]: clear synergistic activity
- FICI Antibiotic + inhibitor ([5]; P aeruginosa 12): 2
- FICI Antibiotic + inhibitor ([5]; P aeruginosa 148): 1

Structure (SMILES): CC(C)(O/N=C(\C(=O)N[C@@H]1C(=O)N2C(C(=O)[O-])=C(C[n+]3ccccc3)CS[C@H]12)c1csc(N)n1)C(=O)O [CAZ, ceftazidime, reference compound]
- MIC Antibiotic ([5]; P aeruginosa 12): 32 µg/mL
- MIC Antibiotic ([5]; P aeruginosa 148): 128 µg/mL
